In US20030105360A1, “Form a of fluoxetine hydrochloride” (priority 2001, published 2003):

Type: physicochemical
Experimental: Using the appropriately precise DSC method set forth in Example 12 herein, wherein the analysis is conducted at a maximum rate of 1° C. per minute, multiple levels of polymorph Forms A, B, and C each are typically present in fluoxetine hydrochloride API (FIGS. 2 and 4). When such API is prepared via any one of the methods of the present invention, recrystallization, slurry, and compression, and analyzed using said DSC method, a single endotherm occurring at a temperature range from about 155° C. to about 160° C., and more preferably from about 157° C. to about 159° C., confirms the presence of Form A of fluoxetine hydrochloride (FIGS. 6 and 8 for the compression and slurry methods, respectively). […] Accordingly, the slurry method for preparing pure and essentially pure Form A is preferred, while the compression method is especially preferred.
Differential Scanning Calorimetry for fluoxetine hydrochloride. The method described in Example 11 was used, except the heating rate was changed from 10° C. per minute to a heating rate of 1° C. per minute from 145° C. to 175° C.

CNCCC(Oc1ccc(C(F)(F)F)cc1)c1ccccc1.Cl (racemic) [Form A, (±)-N-methyl-3-phenyl-2-[α,α,α-trifluoro-p-tolyl) oxy] propylamine hydrochloride]
polymorphic forms found by DSC after storage under accelerated stability conditions: two additional polymorphs of fluoxetine hydrochloride, Forms D and E, were prepared
polymorphic forms found by DSC thermogram (FIG. 11) after storage (pure Form A prepared via recrystallization method, stored at 40° C. and 75% relative humidity, within three days): Forms A, D, and E, which formed within three days
